Structures are written as SMILES.

The half-life is the time in which the quantity being followed falls by half. Read a high half-life as slow loss.

The conditions of this series: rat; liver microsomes; pH 7.4; 15.0 min; 1.0 µM. (In general: Microsomes from liver hold many membrane-bound enzymes, among them those of drug oxidation.)
As for `O=C(O)c1ccc(-c2c[nH]c3ncc(-c4ccccc4)cc23)cc1C1CCCC1`, the half-life is > 30 min.
In the case of `CC(C)NC(=O)c1nc(-c2ccc(Cl)nc2)c2cnccn12`, the half-life was > 30 min.
As for `Cc1ccc(-c2nc(C)c(C(=O)Nc3ccc4c(c3)C(=O)N3CCC[C@H]3C(=O)N4)s2)cc1`, the figure is 27.2 min; as for `CN(C)c1ccccc1-c1csc(N2CCC(C(N)=O)CC2)n1`, 9.95 min.
For `COc1cccc(CNc2ccc(S(=O)(=O)Nc3cccs3)cc2)c1O` the value was 1.6 min; for `Cc1ccc(S(=O)(=O)Nc2ccccc2N2CCCCC2)cc1`, 1.69 min.
For `O=C(Nc1nc(-c2ccccc2)cs1)c1ccncc1NS(=O)(=O)c1ccc(C(F)(F)F)cc1` the value was 20 min; for `O=C(Cc1nc2ccc(Cl)cc2[nH]1)Nc1ccc(S(=O)(=O)Nc2nccs2)cc1`, > 30 min; for `Cc1ccc(S(=O)(=O)Nc2cnccc2C(=O)Nc2nc(-c3ccccc3Cl)cs2)cc1`, 13 min.
For `COc1ccc(-n2nc(C3CCCN(C(=O)Nc4ccccc4)C3)[nH]c2=O)cc1` (stereo unspecified), the half-life is > 30 min.
As for `Fc1cc(Nc2nc(-c3ccncc3)nc3ccccc23)ccc1OC(F)(F)F`, the figure is > 30 min.
As for `CCOC(=O)C1=C(C)NC(=O)CC1C(=O)Nc1cc(Cl)cc(Cl)c1` (stereo unspecified), the figure is 6.1 min; as for `COc1ccc(C2Nc3ccccc3C(=O)N2Cc2ccco2)cc1COc1c(C)cc(NC(C)=O)cc1C` (stereo unspecified), 1.6 min; as for `CC(=O)c1ccc(N2CCN(S(=O)(=O)c3ccc4c(c3)CC(=O)N4)CC2)cc1`, > 30 min.
With `Cc1ccc(SC2=NS(=O)(=O)c3ccccc32)c(C)c1`, the half-life turned out to be 1.54 min.
For `Cc1cc(C)nc(NC(=S)N2CCN(c3cc(C(F)(F)F)nc4ccccc34)CC2)c1` the value was > 30 min; for `O=C(Nc1ncc(Cc2ccc(C(F)(F)F)cc2)s1)c1cnc(-c2ccccc2)o1`, > 30 min.
For `CC1(COc2ccc3c(c2)ncn3-c2ccc3cccc(N4CCC(N)CC4)c3n2)COC1` the value was > 30 min.
As for `COc1ccc(C2Nc3ccccc3C(=O)N2Cc2cccnc2)cc1COc1c(C)cc(NC(C)=O)cc1C` (stereo unspecified), the figure is 1.8 min.
The compound `COCC(C)Nc1ncnc2c1cnn2-c1ccc(C)c(C)c1` (stereo unspecified) yielded a half-life of 23.7 min.
For `COc1ccc(-c2cc(C(F)(F)F)nc(SCCC(=O)Nc3cc(C)ccc3O)n2)cc1` the value was 14.9 min.
For `Cc1ccc(-c2cc(C(=O)Nc3ccc(S(=O)(=O)N(C)C)cc3)c3ccccc3n2)cc1C` the value was 3.4 min; for `Fc1cc(Nc2nc(-c3ccncc3)nc3ccccc23)ccc1-c1ccc2[nH]ncc2c1`, > 30 min.
For `COc1ccc2[nH]c(S(=O)Cc3ncc(C)c(OC)c3C)nc2n1` (stereo unspecified) the value was 19.2 min; for `Cc1ccc(NC(=O)c2cc(-c3ccc(C)o3)nc3ccccc23)nc1`, 8.3 min; for `COc1ccc(-c2nc(N3CCOCC3)c3sc(CN(C)c4ncc(C(=O)NO)cn4)cc3n2)cn1`, > 30 min.
The compound `O=C(CCc1ccccc1)NC(c1cccs1)c1cc(Cl)c2cccnc2c1O` (stereo unspecified) gave a half-life of 2.14 min.
For `O=C(C=Cc1cccnc1)NCCCCC1CCN(C(=O)c2ccccc2)CC1` the value was 12.2 min; for `N#Cc1cccc(-c2nccc(-n3ccnc3)n2)c1`, 26 min.
As for `CCCc1ccc(NC(=O)c2ccc3c(c2)NC(=O)CS3)cc1`, the figure is 1.5 min; as for `O=C(Nc1cccc(OC(F)(F)F)c1)c1cc(-c2ccc[nH]2)n[nH]1`, 20.9 min.
For the compound `c1ccc(Nc2cc3c(cn2)CN(Cc2ccsc2)CCN3)cc1`, the half-life is 1.74 min.
For `CCC(CC)c1cc([C@H]2CN3CC[C@H]2C[C@@H]3CNC(=O)COc2ccccc2)nc(-c2ccncc2)n1` the value was 2.38 min; for `Cc1cc(C)nc(NC(=S)N2CCN(c3cccc([N+](=O)[O-])c3)CC2)c1`, 17 min.
`COc1ccc2c(c1)CCc1c-2n[nH]c1C(=O)N1CCc2c(nc3cc(-c4ccccc4)[nH]n3c2=O)C1` registered a half-life of 27.3 min.
As for `COc1ccc(-n2nc(C3CCCN(C(=O)C4CC4)C3)[nH]c2=O)cc1` (stereo unspecified), the figure is > 30 min; as for `CCNC(=O)Nc1ncc(-c2cc(-c3c(C)cc(OC)cc3C)nc(-c3cnccn3)n2)s1`, > 30 min.
`COc1ccc(Cn2c(=O)[nH]c3cc(C(=O)NCCCN4CCCCC4)ccc3c2=O)cc1`: the half-life was > 30 min.
As for `Cc1ccc(S(=O)(=O)Nc2cnccc2C(=O)Nc2nc(-c3ccccc3)cs2)cc1`, the figure is 14.3 min; as for `OCC(O)CCO/N=C1/C(c2c(O)[nH]c3ccccc23)=Nc2ccccc21` (stereo unspecified), 10 min.
`COc1ccc(Nc2nnc(-c3ccc(C)c(S(=O)(=O)NCc4nc5ccccc5[nH]4)c3)c3ccccc23)cc1`: the half-life is 5.72 min.
As for `O=C(O)c1ccnc2cc(-c3nc4ccccc4n3CCN3CCCCC3)sc12`, the figure is > 30 min.
For `COc1ccc(-c2csc(C3=C(O)CN(Cc4ccc(Cl)cc4)C3=N)n2)cc1OC` the value was 12 min; for `CSc1cc2c(s1)c1cnn(Cc3cccc(N)c3)c(=O)c1n2C`, 3.6 min; for `CNc1oc(-c2cccc(Cl)c2Cl)nc1C#N`, 9.65 min.
In turn, `O=C1CCCC2=C1C(c1ccccc1Cl)N=C(Nc1nc3ccccc3o1)N2` (stereo unspecified) showed a half-life of 9.38 min.
As for `COc1ccc(-n2c(C)c(C(C)=O)c3cc(O)ccc32)cc1`, the figure is 2.2 min; as for `O=c1c2ccccc2nc2n1CCC2`, > 30 min; as for `Cc1cccc(-c2csc(N3CCC(C(N)=O)CC3)n2)c1`, 1.66 min.
In turn, `Cc1ccc(N2CCC(CNc3nc(-c4ccccc4C(C)C)ncc3C)CC2)cn1` registered a half-life of 2.6 min.
As to `CCn1c(=O)cc(OCC(=O)N2CCN(c3cccc(Cl)c3)CC2)c2ccccc21`, the half-life is 2.66 min.
The compound `O=C(CCS(=O)(=O)c1nc(-c2cccs2)cc(C(F)(F)F)n1)Nc1ccc(OC(F)(F)F)cc1` gave a half-life of 2.45 min.
For `CS(=O)(=O)c1ccc(-c2cnc(NCc3ccco3)n3cnnc23)cc1` the value was > 30 min; for `CCCCOC(=O)c1ccnc2cc(C(OCCN3CCCCC3)c3ccccc3Cl)sc12` (stereo unspecified), 3.32 min.
The compound `Cc1c(Cl)cccc1NC(=O)CNS(=O)(=O)c1cccs1` displayed a half-life of 5.47 min.
In the case of `O=c1[nH]cnc2c1ccn2C1OC(CO)C(O)C1O` (stereo unspecified), the half-life was > 30 min.
As for `CN(Cc1ccccc1)C(=O)C1CCN(Cc2cccc3ccccc23)CC1`, the figure is 2.4 min; as for `Nc1nc2c(s1)C(c1ccc(Br)cc1)CC(=O)N2` (stereo unspecified), 23.8 min.
For `CCOC(=O)c1nc(Nc2ccc(N3CCC(C)CC3)cc2)c2ccccc2n1` the value was 1.62 min.
Turning to `OCc1ccc(-c2cc3c(ccn3Cc3cccnc3)c(C3=CCOCC3)n2)cc1`, the half-life turned out to be 4.89 min.
As for `CCOC(=O)N1CCc2c(sc(NCc3ccc(N(C)C)cc3)c2C(=O)Nc2ccc(OC)cc2)C1`, the figure is > 30 min; as for `Cc1cccc(-c2[nH]c(C(C)(C)C)nc2-c2ccc3nccnc3c2)n1`, > 30 min.
For `NC(=O)C1CCN(c2nc(-c3cccs3)cs2)CC1` the value was 3.98 min; for `CCCc1cc(=O)oc2c3c(c4c(c12)OC(C)(C)C=C4)OC(C)C(C)C3O` (stereo unspecified), 13.2 min.
As for `Cc1ccnc(NC(=S)N2CCN(c3ccc(C(F)(F)F)cc3[N+](=O)[O-])CC2)c1`, the figure is > 30 min.
Consider `Fc1cc(Nc2nc(-c3ccncc3)nc3ccccc23)ccc1-c1cccnc1`, for which the half-life was found to be 17 min.

(Values after PubChem BioAssay AID1508591.)
